Laboratory results taken from patent US6737424B2 (Zeneca Ltd., priority 1995, dated 2004).
Like-named read-outs stand apart in the source and are kept apart here.

Experiments:
[1] = biological target: T1, glycine receptor of the NMDA receptor complex (Rattus norvegicus, UniProt P35439); experiment: [3H]-glycine binding assay (Test A)
T1 construct: Freshly dissected cortices and hippocampi are homogenized in 0.32 M sucrose; from tissue; host or cells: rat cortex and hippocampus synaptic membranes
Description: The actions of compounds according to the invention as antagonists at the glycine receptor of the NMDA receptor complex can be shown by one or more standard tests such as the [^3H]-glycine binding assay (Test A) and by in vivo tests such as the red nucleus test (Test B) and the Rat Middle Cerebral Artery test (Test C). These tests confirm that compounds of the invention function as NMDA receptor antagonists in vitro and in vivo. Certain compounds of the invention are potent NMDA receptor antagonists.
In the [^3H]-glycine binding assay, neuronal synaptic membranes are prepared from adult (about 250 g) male Sprague-Dawley rats. Freshly dissected cortices and hippocampi are homogenized in 0.32 M sucrose (110 mg/mL). Synaptosomes are isolated by centrifugation (1000×g, 10 min), the supernatant is pelleted (20,000×g, 20 min) and resuspended in double-distilled water. The suspension was centrifuged for 20 minutes at 8,000×g. The resulting supernatant and buffy coat are washed twice (48,000×g, 10 min) and resuspended in double-deionized water. The final pellet is quickly frozen (dry ice/ethanol bath) under double-deionized water and stored at −70° C.
On the day of the experiment, thawed synaptic membranes are homogenized with a Brinkmann Polytron (Brinkmann Instruments, Westbury, N.Y.) tissue homogenizer in 50 millimolar tris(hydroxymethyl)aminomethane citrate, pH 7.1. The membranes are incubated with 0.04% Sufact-AMPS X100 (Pierce, Rockford, Ill.) in buffer for 20 minutes at 37° C. and washed six times by centrifugation (48,000×g, 10 min) and resuspended in buffer. The final pellet is homogenized at 200 mg wet weight/mL of the buffer for the binding assay.
For [^3H]-glycine binding at the N-methyl-D-aspartate receptor, 20 nanomolar [^3H]-glycine (40-60 Ci/mmol, New England Nuclear, Boston, Mass.) is incubated with the membranes suspended in 50 millimolar tris(hydroxymethyl)aminomethane citrate, pH 7.1 for 30 minutes at 4° C. Glycine, 1 millimolar, is used to define the nonspecific binding. Bound [^3H]-glycine is isolated from free using a Brandel (Biomedical Research and Development Laboratories, Gaithersburg, Md.) cell harvester for vacuum filtration over glass fiber filters (Whatman GF/B from Brandel, Gaithersburg, Md.) presoaked in 0.025% polyethylenimine. The samples retained on the glass fiber filters are rinsed 3 times with a total of 2.5 mL ice cold buffer. Radioactivity is estimated by liquid scintillation counting. IC50 values are obtained from a least-squares regression of a logit-log transformation of the data.

[2] = system: NMDA-induced excitatory response of red nucleus cells; experiment: Red nucleus test (Test B); type: in vivo, rat; conditions: anesthetized rats
Method: The purpose of this test is to determine the effects of intravenously administered glycine antagonists on the NMDA-induced excitatory response of red nucleus cells.
The procedure for the red nucleus test is as follows. Rats are anesthetized with chloral hydrate (400 mg/kg ip) and the femoral vein is catheterized for iv drug administration. Five-barrel micropipettes are stereotaxically positioned in the red nucleus. Typically, three to four of the five barrels are filled as follows: the recording barrel with 2M potassium citrate, the current balancing barrel with 4M NaCl, the drug barrel with 25 mM NMDA, and another drug barrel with 2.5 mM quisqualic acid (QA is only used in selectivity studies). NMDA is iontophoretically applied with an ejection current that is adjusted depending on the sensitivity of each individual red nucleus cell. The NMDA is cycled on and off (usually 30-60 sec. on and 60-120 sec. off) and the firing rate of the cell during each period is recorded. Once the baseline firing rate of the cell has been established, the test drug is administered iv. The effect of the drug on the NMDA-induced excitatory response of the red nucleus cell can be both qualitatively and quantitatively evaluated from the recordings and the raw data accumulated.

[3] = system: permanent middle cerebral artery (MCA) occlusion, focal ischemia; experiment: Rat Middle Cerebral Artery test (Test C); type: in vivo; conditions: I.V. dose of 20 mgs/kg/hr, SHR rats, 24 hours after MCA/common carotid artery occlusion
Method: Male SHR rats weighing 280-320 g are used for these studies. The method used for permanent middle cerebral artery (MCA) occlusion is as described by Brint et al (1988). […] Following occlusions, drugs are administered intravenously via jugular catheter. Twenty-four hours after MCA/common carotid artery occlusion, the animals are sacrificed and their brains quickly removed. Coronal sections of 1 mm thickness are cut using a vibratome and stained with 2,3,5-triphenyl-2H-tetrazolium chloride (TTC) dye. Following staining, necrotic tissue is readily distinguished from the intact brain and the area of infarcted cortex can be traced on an image analyzer. The infarct volume for each section is quantified with an image analyzer, and the total infarct volume is calculated with a program that summed all interval volume. See S. Brint et al. J. Cerebral Blood Flow 8:474-485 (1988). The statistical analysis of the difference between the volume of ischemic damage in the vehicle control and drug-treated animals is analyzed by Student's t-test. […] For example, the compound of example 4 at an I.V. dose of 20 mgs/kg/hr caused an infarct % volume change of −22%.

Structure (SMILES) | melting point [°C] | IC50 [1] [nM] | other results
COC(=O)C1(Cn2nc(O)c3[nH]c4cc(Cl)ccc4c(=O)c3c2=O)C=CC=CC1 (stereo not drawn) (hydrate or solvate) [Example 8, 7-chloro-4-hydroxy-2-[1-(methyloxycarbonyl)-benzyl]-1,2,5,10-tetrahydropyridazino[4,5-b]quinoline-1,10-dione] | 242 to 244 |  | 
CC(C(=O)Nc1ccccc1)n1nc(O)c2[nH]c3cc(Cl)ccc3c(=O)c2c1=O (stereo not drawn) [Example 1, 7-chloro-4-hydroxy-2-[1-(phenylcarbamoyl)ethyl]-1,2,5,10-tetrahydropyridazino[4,5-b]quinoline-1,10-dione] | > 250 | 240 | 
C[C@H](C(=O)O)n1nc(O)c2[nH]c3cc(Cl)ccc3c(=O)c2c1=O [Example 13, 7-chloro-4-hydroxy-2-[(R)-1-carboxyethyl]-1,2,5,10-tetrahydropyridazino[4,5-b]quinoline-1,10-dione] | > 275 |  | 
CCCC(C)n1nc(O)c2[nH]c3cc(Cl)ccc3c(=O)c2c1=O (stereo not drawn) [Example 4, 7-chloro-4-hydroxy-2-(1-methylbutyl)-1,2,5,10-tetrahydropyridazino[4,5-b]quinoline-1,10-dione] | 237 to 239 | 240 | ID50, red nucleus test ([2]; as the meglumine salt (N=3), iv): 3.77 mg/kg; infarct % volume change [3]: −22%
CC(CC(=O)Nc1ccccc1)n1nc(O)c2[nH]c3cc(Cl)ccc3c(=O)c2c1=O (stereo not drawn) [Example 10, 7-chloro-4-hydroxy-2-[1-methyl-2-(N-phenylcarbamoyl)ethyl]-1,2,5,10-tetrahydropyridazino[4,5-b]quinoline-1,10-dione] | > 250 |  | 
C/C(=C\C(N)C(=O)O)CP(=O)(O)O (stereo not drawn) [CGP 37849] |  |  | ID50, red nucleus test ([2]; reference agents, intravenous): 1.7 mg/kg iv
O=c1c2ccc(Cl)cc2[nH]c2c(O)nn(CC3(C(F)(F)F)C=CC=CC3)c(=O)c12 (stereo not drawn) (hydrate or solvate) [Example 12, 7-chloro-4-hydroxy-2-(1-trifluoromethylbenzyl)-1,2,5,10-tetrahydropyridazino[4,5-b]quinoline-1,10-dione] | 237 to 238 |  | 
CC(CC(=O)N(C)c1ccccc1)n1nc(O)c2[nH]c3cc(Cl)ccc3c(=O)c2c1=O (stereo not drawn) [Example 11, 7-chloro-4-hydroxy-2-[1-methyl-2-(N-phenyl-N-methylcarbamoyl)ethyl]-1,2,5,10-tetrahydropyridazino[4,5-b]quinoline-1,10-dione] | 218 to 219 |  | 
CC(C)CC(C)n1nc(O)c2[nH]c3cc(Cl)ccc3c(=O)c2c1=O (stereo not drawn) [Example 6, 7-chloro-4-hydroxy-2-(1,3-dimethylbutyl)-1,2,5,10-tetrahydropyridazino[4,5-b]quinoline-1,10-dione] | 238 to 240 | 290 | 
CC(c1ccccc1)n1nc(O)c2[nH]c3cc(Cl)ccc3c(=O)c2c1=O (stereo not drawn) [Example 3] |  | 370 | 
CC(Cc1ccccc1)n1nc(O)c2[nH]c3cc(Cl)ccc3c(=O)c2c1=O (stereo not drawn) [Example 5, 7-chloro-4-hydroxy-2-(1-methyl-2-phenylethyl)-1,2,5,10-tetrahydropyridazino[4,5-b]quinoline-1,10-dione] |  | 300 | 
NC1CCN(O)C1=O (stereo not drawn) [HA-966] |  |  | ID50, red nucleus test ([2]; reference agents, intravenous): 7.9 mg/kg iv
CC(Cc1ccccc1)n1nc(O)c2[nH]c3cc(Cl)ccc3c(=O)c2c1=O (stereo not drawn) (hydrate or solvate) [Example 5, 7-chloro-4-hydroxy-2-(1-methyl-2-phenylethyl)-1,2,5,10-tetrahydropyridazino[4,5-b]quinoline-1,10-dione] | 241 to 244 |  | 
O=c1c2ccc(Cl)cc2[nH]c2c(O)nn(C3CCCCC3)c(=O)c12 [Example 2, 7-chloro-4-hydroxy-2-cyclohexyl-1,2,5,10-tetrahydropyridazino[4,5-b]quinoline-1,10-dione] | > 100 |  | IC50 ([1]; rat cortex/hippocampus synaptic membranes, 20 nanomolar [3H]-glycine, 30 minutes at 4° C., pH 7.1, read-out: IC50, [3H]-glycine binding): 120 nM
COC(=O)[C@@H](C)n1nc(O)c2[nH]c3cc(Cl)ccc3c(=O)c2c1=O (hydrate or solvate) [Example 7, 7-chloro-4-hydroxy-2-[(R)-1-(methyloxycarbonyl)-ethyl]-1,2,5,10-tetrahydropyridazino[4,5-b]quinoline-1,10-dione] | 262 to 264 |  | 
